Reference: US20240376100A1 (Redona Therapeutics, Inc., priority 2021, published 2024)

target: PAPD5 enzyme (Homo sapiens, UniProt Q8NDF8); experiment: PAPD5 assay (AMP incorporation onto 3'-terminus of RNA substrate, fluorescence quench); type: biochemical; conditions: PAPD5 protein 0.3 nM, ATP 50 μM, 30 minutes preincubation, room temperature; read-out: Potency PAPD5 IC50
Procedure, shortened: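 Enzyme at 0.3 nM with 50 μM ATP, pH 7.3 HEPES buffer, preincubated with compound 30 minutes at room temperature; 5 nM 5′-fluorescein RNA substrate and 20 nM TAMRA quench probe then added. Initial rates from kinetic fluorescein decrease over ~90 minutes; IC50 by four-parameter fit.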

PAPD5 enzyme, sequence (Q8NDF8 whole entry): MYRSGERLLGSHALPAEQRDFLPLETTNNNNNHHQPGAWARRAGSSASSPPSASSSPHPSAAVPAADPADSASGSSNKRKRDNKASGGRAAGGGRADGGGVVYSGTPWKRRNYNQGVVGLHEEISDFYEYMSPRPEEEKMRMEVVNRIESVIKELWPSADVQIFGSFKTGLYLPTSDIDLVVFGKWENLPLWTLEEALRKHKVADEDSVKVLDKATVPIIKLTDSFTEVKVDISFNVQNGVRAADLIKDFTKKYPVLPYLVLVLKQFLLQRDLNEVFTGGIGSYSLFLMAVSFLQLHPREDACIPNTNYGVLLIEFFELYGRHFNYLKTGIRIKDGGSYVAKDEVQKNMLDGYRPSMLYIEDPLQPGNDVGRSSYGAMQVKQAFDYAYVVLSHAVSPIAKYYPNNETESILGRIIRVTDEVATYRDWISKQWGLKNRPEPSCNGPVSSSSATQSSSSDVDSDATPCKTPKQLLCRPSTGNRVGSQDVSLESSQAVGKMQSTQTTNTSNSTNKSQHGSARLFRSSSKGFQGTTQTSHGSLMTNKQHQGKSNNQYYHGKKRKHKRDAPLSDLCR

IC50 [nM]	SMILES
≤ 1000	Cc1cc(N)ncc1-n1cc(C(=O)O)c(=O)c2cc(Cl)c(N3Cc4ccncc4C3)nc21 [Example 159, 1-(6-amino-4-methylpyridin-3-yl)-6-chloro-7-(1,3-dihydro-2H-pyrrolo[3,4-c]pyridin-2-yl)-4-oxo-1,4-dihydro-1,8-naphthyridine-3-carboxylic acid]
≤ 1000	Cc1cc(N)ncc1-n1cc(C(=O)O)c(=O)c2cc(Cl)c(N3Cc4ccc(F)cc4C3)nc21 [Example 160, 1-(6-amino-4-methylpyridin-3-yl)-6-chloro-7-(5-fluoroisoindolin-2-yl)-4-oxo-1,4-dihydro-1,8-naphthyridine-3-carboxylic acid]
≤ 1000	CNc1cc(C)c(-n2cc(C(=O)O)c(=O)c3cc(Cl)c(N4Cc5cccnc5C4)nc32)cn1 [Example 170, 6-chloro-7-(5,7-dihydro-6H-pyrrolo[3,4-b]pyridin-6-yl)-1-(4-methyl-6-(methylamino)pyridin-3-yl)-4-oxo-1,4-dihydro-1,8-naphthyridine-3-carboxylic acid]
≤ 1000	CNCCNc1cc(C)c(-n2cc(C(=O)O)c(=O)c3cc(Cl)c(N4Cc5cccnc5C4)nc32)cn1 [Example 171, 6-chloro-7-(5,7-dihydro-6H-pyrrolo[3,4-b]pyridin-6-yl)-1-(4-methyl-6-((2-(methylamino)ethyl)amino)pyridin-3-yl)-4-oxo-1,4-dihydro-1,8-naphthyridine-3-carboxylic acid]
≤ 1000	Cc1cc(NC(=O)C2CCC2)ncc1-n1cc(C(=O)O)c(=O)c2cc(Cl)c(N3Cc4cccnc4C3)nc21 [Example 174, 6-chloro-1-(6-(cyclobutanecarboxamido)-4-methylpyridin-3-yl)-7-(5,7-dihydro-6H-pyrrolo[3,4-b]pyridin-6-yl)-4-oxo-1,4-dihydro-1,8-naphthyridine-3-carboxylic acid]
≤ 1000	Cc1cc(N)ncc1-n1cc(C(=O)O)c(=O)c2cc(Cl)c(N3CCc4ccccc4C3)nc21 [Example 176, 1-(6-amino-4-methylpyridin-3-yl)-6-chloro-7-(3,4-dihydroisoquinolin-2(1H)-yl)-4-oxo-1,4-dihydro-1,8-naphthyridine-3-carboxylic acid]
≤ 1000	Cc1cc(N(C)CCN2CCCCC2)ncc1-n1cc(C(=O)O)c(=O)c2cc(Cl)c(N3Cc4cccnc4C3)nc21 [Example 177, 6-chloro-7-(5,7-dihydro-6H-pyrrolo[3,4-b]pyridin-6-yl)-1-(4-methyl-6-(methyl(2-(piperidin-1-yl)ethyl)amino)pyridin-3-yl)-4-oxo-1,4-dihydro-1,8-naphthyridine-3-carboxylic acid]
≤ 1000	COc1cccc2c1CN(c1nc3c(cc1Cl)c(=O)c(C(=O)O)cn3-c1cnc(N)cc1C)C2 [Example 178, 1-(6-amino-4-methylpyridin-3-yl)-6-chloro-7-(4-methoxyisoindolin-2-yl)-4-oxo-1,4-dihydro-1,8-naphthyridine-3-carboxylic acid]
≤ 1000	Cc1cc(N)ncc1-n1cc(C(=O)O)c(=O)c2cc(Cl)c(N3CCc4cccnc4C3)nc21 [Example 180, 1-(6-amino-4-methylpyridin-3-yl)-6-chloro-7-(5,8-dihydro-1,7-naphthyridin-7(6H)-yl)-4-oxo-1,4-dihydro-1,8-naphthyridine-3-carboxylic acid]
≤ 1000	Cc1cc(N)ncc1-n1cc(C(=O)O)c(=O)c2cc(F)c(N3CCc4ccccc4C3)cc21 [Example 181, 1-(6-amino-4-methylpyridin-3-yl)-7-(3,4-dihydroisoquinolin-2(1H)-yl)-6-fluoro-4-oxo-1,4-dihydroquinoline-3-carboxylic acid]
≤ 1000	Cc1cc(N2CCC2)ncc1-n1cc(C(=O)O)c(=O)c2cc(F)c(N3Cc4cccnc4C3)nc21 [Example 183, 1-(6-(azetidin-1-yl)-4-methylpyridin-3-yl)-7-(5,7-dihydro-6H-pyrrolo[3,4-b]pyridin-6-yl)-6-fluoro-4-oxo-1,4-dihydro-1,8-naphthyridine-3-carboxylic acid]
≤ 1000	Cc1cc(N)ncc1-n1cc(C(=O)O)c(=O)c2cc(Cl)c(N3CCc4ccncc4C3)nc21 [Example 185, 1-(6-amino-4-methylpyridin-3-yl)-6-chloro-7-(3,4-dihydro-2,7-naphthyridin-2(1H)-yl)-4-oxo-1,4-dihydro-1,8-naphthyridine-3-carboxylic acid]
≤ 1000	Cc1cc(N)ncc1-n1cc(C(=O)O)c(=O)c2cc(Cl)c(N3CCc4ncccc4C3)nc21 [Example 186, 1-(6-amino-4-methylpyridin-3-yl)-6-chloro-7-(7,8-dihydro-1,6-naphthyridin-6(5H)-yl)-4-oxo-1,4-dihydro-1,8-naphthyridine-3-carboxylic acid]
≤ 1000	Cc1cc(N2CC(N(C)C)C2)ncc1-n1cc(C(=O)O)c(=O)c2cc(Cl)c(N3Cc4cccnc4C3)nc21 [Example 188, 6-chloro-7-(5,7-dihydro-6H-pyrrolo[3,4-b]pyridin-6-yl)-1-(6-(3-(dimethylamino)azetidin-1-yl)-4-meth-ylpyridin-3-yl)-4-oxo-1,4-dihydro-1,8-naphthyridine-3-carboxylic acid]
≤ 1000	Cc1cc(N2CCC2)ncc1-n1cc(C(=O)O)c(=O)c2cc(Cl)c(N3Cc4cccnc4C3)cc21 [Example 189, 1-(6-(azetidin-1-yl)-4-methylpyridin-3-yl)-6-chloro-7-(5,7-dihydro-6H-pyrrolo[3,4-b]pyridin-6-yl)-4-oxo-1,4-dihydroquinoline-3-carboxylic acid]

The next lines start with the compound.

SMILES	IC50 [nM]
COc1ccc2c(c1)CN(c1nc3c(cc1Cl)c(=O)c(C(=O)O)cn3-c1cnc(N)cc1C)C2 [Example 161, 1-(6-amino-4-methylpyridin-3-yl)-6-chloro-7-(5-methoxyisoindolin-2-yl)-4-oxo-1,4-dihydro-1,8-naphthyridine-3-carboxylic acid]	≤ 1000
Cc1cc(N)ncc1-n1cc(C(=O)O)c(=O)c2cc(Cl)c(-n3ccc(N(C)C)n3)nc21 [Example 162, 1-(6-amino-4-methylpyridin-3-yl)-6-chloro-7-(3-(dimethylamino)-1H-pyrazol-1-yl)-4-oxo-1,4-dihydro-1,8-naphthyridine-3-carboxylic acid]	≤ 1000
Cc1cc(NC(=O)OC(C)(C)C)ncc1-n1cc(C(=O)O)c(=O)c2cc(Cl)c(-n3cccn3)nc21 [Example 164, 1-(6-((tert-butoxycarbonyl)amino)-4-methylpyridin-3-yl)-6-chloro-4-oxo-7-(1H-pyrazol-1-yl)-1,4-dihydro-1,8-naphthyridine-3-carboxylic acid]	≤ 1000
Cc1cc(NC(=O)OC(C)(C)C)ncc1-n1cc(C(=O)O)c(=O)c2cc(Cl)c(N3Cc4ccccc4C3)nc21 [Example 165, 1-(6-((tert-butoxycarbonyl)amino)-4-methylpyridin-3-yl)-6-chloro-7-(isoindolin-2-yl)-4-oxo-1,4-dihydro-1,8-naphthyridine-3-carboxylic acid]	≤ 1000
Cc1cc(NC(=O)OC(C)(C)C)ncc1-n1cc(C(=O)O)c(=O)c2cc(Cl)c(N3Cc4cccc(F)c4C3)nc21 [Example 166, 1-(6-((tert-butoxycarbonyl)amino)-4-methylpyridin-3-yl)-6-chloro-7-(4-fluoroisoindolin-2-yl)-4-oxo-1,4-dihydro-1,8-naphthyridine-3-carboxylic acid]	≤ 1000
Cc1cc(NC(=O)OC(C)(C)C)ncc1-n1cc(C(=O)O)c(=O)c2cc(Cl)c(N3Cc4ccncc4C3)nc21 [Example 167, 1-(6-((tert-butoxycarbonyl)amino)-4-methylpyridin-3-yl)-6-chloro-7-(1,3-dihydro-2H-pyrrolo[3,4-c]pyridin-2-yl)-4-oxo-1,4-dihydro-1,8-naphthyridine-3-carboxylic acid]	≤ 1000
Cc1cc(NCCN2CCCCC2)ncc1-n1cc(C(=O)O)c(=O)c2cc(Cl)c(N3Cc4cccnc4C3)nc21 [Example 172, 6-chloro-7-(5,7-dihydro-6H-pyrrolo[3,4-b]pyridin-6-yl)-1-(4-methyl-6-((2-(piperidin-1-yl)ethyl)amino)pyridin-3-yl)-4-oxo-1,4-dihydro-1,8-naphthyridine-3-carboxylic acid]	≤ 1000
Cc1cc(NC(=O)OC(C)(C)C)ncc1-n1cc(C(=O)O)c(=O)c2cc(Cl)c(N3CCc4ccccc4C3)nc21 [Example 175, 1-(6-((tert-butoxycarbonyl)amino)-4-methylpyridin-3-yl)-6-chloro-7-(3,4-dihydroisoquinolin-2(1H)-yl)-4-oxo-1,4-dihydro-1,8-naphthyridine-3-carboxylic acid]	≤ 1000
Cc1cc(N)ncc1-n1cc(C(=O)O)c(=O)c2cc(Cl)c(N3Cc4cncnc4C3)nc21 [Example 179, 1-(6-amino-4-methylpyridin-3-yl)-6-chloro-7-(5,7-dihydro-6H-pyrrolo[3,4-d]pyrimidin-6-yl)-4-oxo-1,4-dihydro-1,8-naphthyridine-3-carboxylic acid]	≤ 1000
Cc1cc(NC(=O)OC(C)(C)C)ncc1-n1cc(C(=O)O)c(=O)c2cc(Cl)c(N3CCc4cccnc4C3)nc21 [Example 182, 1-(6-((tert-butoxycarbonyl)amino)-4-methylpyridin-3-yl)-6-chloro-7-(5,8-dihydro-1,7-naphthyridin-7(6H)-yl)-4-oxo-1,4-dihydro-1,8-naphthyridine-3-carboxylic acid]	≤ 1000
Cc1cc(NC(=O)OC(C)(C)C)ncc1-n1cc(C(=O)O)c(=O)c2cc(F)c(N3CCc4ccccc4C3)cc21 [Example 184, 1-(6-((tert-butoxycarbonyl)amino)-4-methylpyridin-3-yl)-7-(3,4-dihydroisoquinolin-2(1H)-yl)-6-fluoro-4-oxo-1,4-dihydroquinoline-3-carboxylic acid]	≤ 1000
Cc1cc(NC(=O)OC(C)(C)C)ncc1-n1cc(C(=O)O)c(=O)c2cc(Cl)c(N3CCc4ccncc4C3)nc21 [Example 187, 1-(6-((tert-butoxycarbonyl)amino)-4-methylpyridin-3-yl)-6-chloro-7-(3,4-dihydro-2,7-naphthyridin-2(1H)-yl)-4-oxo-1,4-dihydro-1,8-naphthyridine-3-carboxylic acid]	≤ 1000
